# Test results reported in patent US20230192705A1, “SHP2 INHIBITORS, COMPOSITIONS AND USES THEREOF” (Betta Pharmaceuticals Co., Ltd, priority 2020, published 2023).
# Target: T1, SHP2 (Homo sapiens, UniProt Q06124)
# T1 sequence (Q06124 1-593): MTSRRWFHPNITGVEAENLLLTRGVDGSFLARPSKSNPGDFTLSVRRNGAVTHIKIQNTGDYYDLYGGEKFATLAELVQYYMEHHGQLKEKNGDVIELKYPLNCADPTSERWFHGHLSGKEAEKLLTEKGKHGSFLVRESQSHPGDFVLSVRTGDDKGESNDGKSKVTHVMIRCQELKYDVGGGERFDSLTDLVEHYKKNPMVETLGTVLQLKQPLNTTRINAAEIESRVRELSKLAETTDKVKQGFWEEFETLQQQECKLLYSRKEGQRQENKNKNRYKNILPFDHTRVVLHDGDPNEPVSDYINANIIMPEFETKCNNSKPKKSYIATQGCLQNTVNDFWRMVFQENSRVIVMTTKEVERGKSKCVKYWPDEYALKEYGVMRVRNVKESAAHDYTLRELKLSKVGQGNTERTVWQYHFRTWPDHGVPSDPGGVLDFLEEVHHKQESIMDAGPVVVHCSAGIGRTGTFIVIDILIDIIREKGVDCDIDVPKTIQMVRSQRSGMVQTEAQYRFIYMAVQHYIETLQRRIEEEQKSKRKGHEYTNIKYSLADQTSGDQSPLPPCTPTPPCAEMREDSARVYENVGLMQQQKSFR
# Assay: SHP2 allosteric inhibitor enzyme activity assay (DiFMUP fluorescence)
# Format: biochemical
# Details: class symbols
# Outline: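 SHP2 activated by 0.5 μM IRS1_pY1172(dPEG8)pY1222 peptide, 0.2 ng enzyme per well, 1 h at room temperature with compound (1 μM top, 3-fold series), then DiFMUP substrate 1 h. Buffer: 60 mM HEPES, 75 mM NaCl, 75 mM KCl, 0.05% BRIJ-35, 1 mM EDTA, 5 mM DTT. Fluorescence ex 340/em 450 nm; IC50 by variable-slope fit.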
row,SMILES,IC50 [µM]
1,"C[C@@H]1OCC2(CCN(c3nc4[nH]nc(C5(c6ccccc6C(F)(F)F)CC5)c4c(=O)[nH]3)CC2)[C@@H]1N [Example 298, 6-((3S,4S)-4-amino-3-methyl-2-oxa-8-azaspiro[4.5]decan-8-yl)-3-(1-(2-(trifluoromethyl)phenyl)cyclopropyl)-1,5-dihydro-4H-pyrazolo[3,4-d]pyrimidin-4-one]",> 0.06
2,"C[C@@H]1OCC2(CCN(c3nc4[nH]nc(C5(c6ccc(N)cc6)CC5)c4c(=O)[nH]3)CC2)[C@@H]1N [Example 299, 6-((3S,4S)-4-amino-3-methyl-2-oxa-8-azaspiro[4.5]decan-8-yl)-3-(1-(4-aminophenyl)cyclopropyl)-1,5-dihydro-4H-pyrazolo[3,4-d]pyrimidin-4-one]",0.02 to 0.06
3,"Cc1ccc(C2(c3n[nH]c4nc(N5CCC6(CC5)CO[C@@H](C)[C@H]6N)[nH]c(=O)c34)CC2)cc1 [Example 300, 6-((3S,4S)-4-amino-3-methyl-2-oxa-8-azaspiro[4.5]decan-8-yl)-3-(1-(p-tolyl)cyclopropyl)-1,5-dihydro-4H-pyrazolo[3,4-d]pyrimidin-4-one]",0.02 to 0.06
4,"Cc1cccc(C2(c3n[nH]c4nc(N5CCC6(CC5)CO[C@@H](C)[C@H]6N)[nH]c(=O)c34)CC2)c1 [Example 301, 6-((3S,4S)-4-amino-3-methyl-2-oxa-8-azaspiro[4.5]decan-8-yl)-3-(1-(m-tolyl)cyclopropyl)-1,5-dihydro-4H-pyrazolo[3,4-d]pyrimidin-4-one]",0.02 to 0.06
5,"Cc1ccccc1C1(c2n[nH]c3nc(N4CCC5(CC4)CO[C@@H](C)[C@H]5N)[nH]c(=O)c23)CC1 [Example 302, 6-((3S,4S)-4-amino-3-methyl-2-oxa-8-azaspiro[4.5]decan-8-yl)-3-(1-(o-tolyl)cyclopropyl)-1,5-dihydro-4H-pyrazolo[3,4-d]pyrimidin-4-one]",0.02 to 0.06
6,"CCOC(=O)Nc1ccc(C2(c3n[nH]c4nc(N5CCC6(CC5)CO[C@@H](C)[C@H]6N)[nH]c(=O)c34)CC2)cc1 [Example 303, ethyl(4-(1-(6-((3S,4S)-4-amino-3-methyl-2-oxa-8-azaspiro[4.5]decan-8-yl)-4-oxo-4,5-dihydro-1H-pyrazolo[3,4-d]pyrimidin-3-yl)cyclopropyl)phenyl)carbamate]",0.02 to 0.06
7,"COc1ccc(C2(c3n[nH]c4nc(N5CCC6(CC5)CO[C@@H](C)[C@H]6N)[nH]c(=O)c34)CC2)cc1 [Example 304, 6-((3S,4S)-4-amino-3-methyl-2-oxa-8-azaspiro[4.5]decan-8-yl)-3-(1-(4-methoxyphenyl)cyclopropyl)-1,5-dihydro-4H-pyrazolo[3,4-d]pyrimidin-4-one]",0.02 to 0.06
8,"COc1cccc(C2(c3n[nH]c4nc(N5CCC6(CC5)CO[C@@H](C)[C@H]6N)[nH]c(=O)c34)CC2)c1 [Example 305, 6-((3S,4S)-4-amino-3-methyl-2-oxa-8-azaspiro[4.5]decan-8-yl)-3-(1-(3-methoxyphenyl)cyclopropyl)-1,5-dihydro-4H-pyrazolo[3,4-d]pyrimidin-4-one]",0.02 to 0.06
9,"COc1ccccc1C1(c2n[nH]c3nc(N4CCC5(CC4)CO[C@@H](C)[C@H]5N)[nH]c(=O)c23)CC1 [Example 306, 6-((3S,4S)-4-amino-3-methyl-2-oxa-8-azaspiro[4.5]decan-8-yl)-3-(1-(2-methoxyphenyl)cyclopropyl)-1,5-dihydro-4H-pyrazolo[3,4-d]pyrimidin-4-one]",0.02 to 0.06
10,"C[C@@H]1OCC2(CCN(c3nc4[nH]nc(C5(c6ccc(OC(F)(F)F)cc6)CC5)c4c(=O)[nH]3)CC2)[C@@H]1N [Example 307, 6-((3S,4S)-4-amino-3-methyl-2-oxa-8-azaspiro[4.5]decan-8-yl)-3-(1-(4-(trifluoromethoxy)phenyl)cyclopropyl)-1,5-dihydro-4H-pyrazolo[3,4-d]pyrimidin-4-one]",0.02 to 0.06
11,"C[C@@H]1OCC2(CCN(c3nc4[nH]nc(C5(c6ccc7c(c6)OC(F)(F)O7)CC5)c4c(=O)[nH]3)CC2)[C@@H]1N [Example 308, 6-((3S,4S)-4-amino-3-methyl-2-oxa-8-azaspiro[4.5]decan-8-yl)-3-(1-(2,2-difluorobenzo[d][1,3]dioxol-5-yl)cyclopropyl)-1,5-dihydro-4H-pyrazolo[3,4-d]pyrimidin-4-one]",> 0.06
12,"C[C@@H]1OCC2(CCN(c3nc4[nH]nc(C5(c6cccc(Cl)c6Cl)CC5)c4c(=O)[nH]3)CC2)[C@@H]1N [Example 309, 6-((3S,4S)-4-amino-3-methyl-2-oxa-8-azaspiro[4.5]decan-8-yl)-3-(1-(2,3-dichlorophenyl)cyclopropyl)-1,5-dihydro-4H-pyrazolo[3,4-d]pyrimidin-4-one]",0.02 to 0.06
13,"C[C@@H]1OCC2(CCN(c3nc4[nH]nc(C5(c6cccc(O)c6)CC5)c4c(=O)[nH]3)CC2)[C@@H]1N [Example 310, 6-((3S,4S)-4-amino-3-methyl-2-oxa-8-azaspiro[4.5]decan-8-yl)-3-(1-(3-hydroxyphenyl)cyclopropyl)-1,5-dihydro-4H-pyrazolo[3,4-d]pyrimidin-4-one]",0.02 to 0.06
14,"C[C@@H]1OCC2(CCN(c3nc4[nH]nc(C5(c6ccc(O)cc6)CC5)c4c(=O)[nH]3)CC2)[C@@H]1N [Example 311, 6-((3S,4S)-4-amino-3-methyl-2-oxa-8-azaspiro[4.5]decan-8-yl)-3-(1-(4-hydroxyphenyl)cyclopropyl)-1,5-dihydro-4H-pyrazolo[3,4-d]pyrimidin-4-one]",0.02 to 0.06
15,"C[C@@H]1OCC2(CCN(c3nc4[nH]nc(C5(c6ccc(Cl)cc6Cl)CC5)c4c(=O)[nH]3)CC2)[C@@H]1N [Example 313, 6-((3S,4S)-4-amino-3-methyl-2-oxa-8-azaspiro[4.5]decan-8-yl)-3-(1-(2,4-dichlorophenyl)cyclopropyl)-1,5-dihydro-4H-pyrazolo[3,4-d]pyrimidin-4-one]",> 0.06
16,"C[C@@H]1OCC2(CCN(c3nc4[nH]nc(C5(c6cccc(-n7cccn7)c6)CC5)c4c(=O)[nH]3)CC2)[C@@H]1N [Example 314, 3-(1-(3-(1H-pyrazol-1-yl)phenyl)cyclopropyl)-6-((3S,4S)-4-amino-3-methyl-2-oxa-8-azaspiro[4.5]decan-8-yl)-1,5-dihydro-4H-pyrazolo[3,4-d]pyrimidin-4-one]",> 0.06
17,"C[C@@H]1OCC2(CCN(c3nc4[nH]nc(C5(c6ccc(C#N)cc6)CC5)c4c(=O)[nH]3)CC2)[C@@H]1N [Example 315, 4-(1-(6-((3S,4S)-4-amino-3-methyl-2-oxa-8-azaspiro[4.5]decan-8-yl)-4-oxo-4,5-dihydro-1H-pyrazolo[3,4-d]pyrimidin-3-yl)cyclopropyl)benzonitrile]",0.02 to 0.06
18,"CC(=O)c1cccc(C2(c3n[nH]c4nc(N5CCC6(CC5)CO[C@H](C)[C@@H]6N)[nH]c(=O)c34)CC2)c1 [Example 316, 3-(1-(3-acetylphenyl)cyclopropyl)-6-((3R,4R)-4-amino-3-methyl-2-oxa-8-azaspiro[4.5]decan-8-yl)-1,5-dihydro-4H-pyrazolo[3,4-d]pyrimidin-4-one]",0.02 to 0.06
19,"C[C@@H]1OCC2(CCN(c3nc4[nH]nc(C5(c6cccc(Br)c6)CC5)c4c(=O)[nH]3)CC2)[C@@H]1N [Example 317, 6-((3S,4S)-4-amino-3-methyl-2-oxa-8-azaspiro[4.5]decan-8-yl)-3-(1-(3-bromophenyl)cyclopropyl)-1,5-dihydro-4H-pyrazolo[3,4-d]pyrimidin-4-one]",0.02 to 0.06
20,"Cc1csc(C2(c3n[nH]c4nc(N5CCC6(CC5)CO[C@@H](C)[C@H]6N)[nH]c(=O)c34)CC2)n1 [Example 318, 6-((3S,4S)-4-amino-3-methyl-2-oxa-8-azaspiro[4.5]decan-8-yl)-3-(1-(4-methylthiazol-2-yl)cyclopropyl)-1,5-dihydro-4H-pyrazolo[3,4-d]pyrimidin-4-one]",0.02 to 0.06
21,"Cc1cccc(C2(c3n[nH]c4nc(N5CCC6(CC5)CO[C@@H](C)[C@H]6N)[nH]c(=O)c34)CC2)n1 [Example 319, 6-((3S,4S)-4-amino-3-methyl-2-oxa-8-azaspiro[4.5]decan-8-yl)-3-(1-(6-methylpyridin-2-yl)cyclopropyl)-1,5-dihydro-4H-pyrazolo[3,4-d]pyrimidin-4-one]",> 0.06
22,"C[C@@H]1CCC2(CCN(c3nc4[nH]nc(C5(c6ccccc6)CC5)c4c(=O)[nH]3)CC2)[C@@H]1N [Example 320, 6-((1R,2R)-1-amino-2-methyl-8-azaspiro[4.5]decan-8-yl)-3-(1-phenylcyclopropyl)-1,5-dihydro-4H-pyrazolo[3,4-d]pyrimidin-4-one]",0.02 to 0.06
23,"N[C@@H]1CCCC12CCN(c1nc3[nH]nc(C4(c5ccccc5)CC4)c3c(=O)[nH]1)CC2 [Example 321, (R)-6-(1-amino-8-azaspiro[4.5]decan-8-yl)-3-(1-phenylcyclopropyl)-1,5-dihydro-4H-pyrazolo[3,4-d]pyrimidin-4-one]",0.02 to 0.06
